# Measured values: patent publication US7713994B2 (Wyeth LLC, priority 2005, dated 2010)
# How the values were obtained:
# cyclin D1/cdk 4 enzyme = molecular target: T1, cyclin D1/cdk 4 enzyme (Homo sapiens, UniProt P11802); assay: CDK4 ELISA kinase assay (phospho-Rb ser 795 detection); type: biochemical; settings: In Vitro Enzyme Assay, cyclin D1/cdk 4, read-out: CDK4 IC50
# T1 construct: made in house; host or cells: Sf9 insect cells, recombinant baculovirus
# Method in brief: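 Wells were coated overnight with GST-Rb C-terminal fragment, then blocked. Compound (10 ug/ml final) and cyclin/CDK enzyme from baculovirus-infected Sf9 cells with 200 μM ATP reacted 1 h at 30° C. Ser795 phosphorylation was detected by ELISA at 450 nm.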
# LoVo = assay: Cytotoxicity assay (SRB), LoVo; type: cell-based; settings: Homo sapiens, LoVo, 72 h, LoVo cells, 3 days, SRB; read-out: In Vitro Cellular Activity IC50 LOVO
# Method: (§1) BT474, HCT-116, LoVo and MCF-7 were maintained under 7% CO2 in RPMI 1640 medium supplemented with 10% fetal bovine serum and 50 µg/ml gentamicin.
# (§2) Cells were plated in 96-well microtiter dishes (12000 cells/well for BT474, 4000 cells/well for HCT-116, 6000 cells/well for LoVo and 6000 cells/well for MCF-7) in RPMI 1640 medium containing 5% fetal bovine serum and 50 µg/ml gentamicin. The cells were allowed to incubate overnight at 37° C., 7% CO2. Compound dilutions were prepared using the same medium. HCT-116, LoVo and MCF-7 cells were cultured for three days and BT474 cells were cultured for 6 days, in the presence of each compound dilution. Untreated cells were included as controls. The percentage of surviving cells was determined using a protein binding dye (sulforhodamineB, SRB) assay. Cellular protein was precipitated in each well by the addition of 0.05 ml of 50% cold trichloroacetic acid (TCA). After 1 hour, the plates were washed extensively in dH2O and dried. The sulforhodamineB dye solution (0.08 mL of 0.4% SRB in 1% acetic acid) was added to each well, kept at room temperature for ten minutes, then washed in 1% acetic acid and dried. The dye was dissolved in 10 mM Tris-HCl (150 uL) and the absorbency read at 540 nm.
# HCT-116 = assay: Cytotoxicity assay (SRB), HCT-116; type: cell-based; settings: Homo sapiens, HCT-116, 72 h, HCT116 cells, 3 days, SRB; read-out: In Vitro Cellular Activity IC50 HCT116
# Method: as §1, §2
# BT474 = assay: Cytotoxicity assay (SRB), BT474; type: cell-based; settings: Homo sapiens, BT-474, 144 h, BT474 cells, 6 days, SRB; read-out: In Vitro Cellular Activity IC50 BT474
# Method: as §1, §2
# MCF-7 = assay: Cytotoxicity assay (SRB), MCF-7; type: cell-based; settings: Homo sapiens, MCF7, 72 h, MCF-7 cells, 3 days, SRB; read-out: In Vitro Cellular Activity IC50 MCF-7
# Method: as §1, §2
# T1 sequence (P11802 whole entry, species assumed): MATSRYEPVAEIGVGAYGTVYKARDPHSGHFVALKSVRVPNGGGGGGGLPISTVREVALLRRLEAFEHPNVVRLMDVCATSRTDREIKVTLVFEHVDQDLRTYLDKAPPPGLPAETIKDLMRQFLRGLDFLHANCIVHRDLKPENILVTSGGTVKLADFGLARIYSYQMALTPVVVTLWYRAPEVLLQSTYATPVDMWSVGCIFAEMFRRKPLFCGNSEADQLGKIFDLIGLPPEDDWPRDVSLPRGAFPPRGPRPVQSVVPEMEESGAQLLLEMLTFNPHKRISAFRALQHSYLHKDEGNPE
# T1 sequence (P24385 whole entry partner, species assumed): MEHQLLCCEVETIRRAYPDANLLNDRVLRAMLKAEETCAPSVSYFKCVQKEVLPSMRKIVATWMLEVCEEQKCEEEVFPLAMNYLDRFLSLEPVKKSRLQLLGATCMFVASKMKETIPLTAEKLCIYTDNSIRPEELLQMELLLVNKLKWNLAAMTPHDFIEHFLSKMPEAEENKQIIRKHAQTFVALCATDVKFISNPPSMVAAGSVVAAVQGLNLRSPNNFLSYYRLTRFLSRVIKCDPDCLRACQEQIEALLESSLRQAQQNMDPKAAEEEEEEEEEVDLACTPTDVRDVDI
SMILES,IC50 (cyclin D1/cdk 4 enzyme),IC50 (LoVo),IC50 (HCT-116),IC50 (BT474),IC50 (MCF-7)
"O=C1NC(=O)c2ccc(-c3csc4ccccc34)cc2C1=CNCc1ccc(O)c(O)c1 [Example 645, 6-Benzo[b]thiophen-3-yl-4-[(3,4-dihydroxy-benzylamino)-methylene]-4H-isoquinoline-1,3-dione]",2.2 µM,7.2 µM,9 µM,15.5 µM,8.8 µM
"N#CCc1ccc(NC=C2C(=O)NC(=O)c3ccc(C=Cn4ccnc4)cc32)cc1 [Example 651, (4-{[6-(2-Imidazol-1-yl-vinyl)-1,3-dioxo-2,3-dihydro-1H-isoquinolin-4-ylidenemethyl]-amino}-phenyl)-acetonitrile]",3 µM,> 50 µM,> 50 µM,> 50 µM,37.1 µM
"NS(=O)(=O)c1ccc(CNC=C2C(=O)NC(=O)c3ccc(C=Cc4ccccn4)cc32)cc1 [Example 652, 4-({[1,3-Dioxo-6-(2-pyridin-2-yl-vinyl)-2,3-dihydro-1H-isoquinolin-4-ylidenemethyl]-amino}-methyl)-benzenesulfonamide]",2.4 µM,> 50 µM,> 50 µM,28.5 µM,27 µM
"NS(=O)(=O)c1ccc(CNC=C2C(=O)NC(=O)c3ccc(C=Cc4ccccc4)cc32)cc1 [Example 654, 4-{[(1,3-Dioxo-6-styryl-2,3-dihydro-1H-isoquinolin-4-ylidenemethyl)-amino]-methyl}-benzenesulfonamide]",2 µM,13.1 µM,2.4 µM,3.1 µM,10.7 µM
"NS(=O)(=O)c1ccc(CNC=C2C(=O)NC(=O)c3ccc(C=CC4CCCCC4)cc32)cc1 [Example 656, 4-({[6-(2-Cyclohexyl-vinyl)-1,3-dioxo-2,3-dihydro-1H-isoquinolin-4-ylidenemethyl]-amino}-methyl)-benzenesulfonamide]",4.8 µM,11.7 µM,12.6 µM,13.4 µM,12.2 µM
"O=C1NC(=O)c2ccc(C=Cc3ccc4ccccc4c3)cc2C1=CNCc1ccc(O)c(O)c1 [Example 661, 4-[(3,4-Dihydroxy-benzylamino)-methylene]-6-(2-naphthalen-2-yl-vinyl)-4H-isoquinoline-1,3-dione]",5.5 µM,> 50 µM,> 50 µM,36.9 µM,37.5 µM
"CN1CCN(c2ccc(NC=C3C(=O)NC(=O)c4ccc(-c5cc6ccccc6o5)cc43)cc2)CC1 [Example 669, 6-Benzofuran-2-yl-4-{[4-(4-methyl-piperazin-1-yl)-phenylamino]-methylene}-4H-isoquinoline-1,3-dione]",9.6 µM,20.6 µM,2.9 µM,2 µM,2.9 µM
"CN1CCN(c2ccc(NC=C3C(=O)NC(=O)c4ccc(C=CCn5ccnc5)cc43)cc2)CC1 [Example 679, 6-(3-Imidazol-1-yl-propenyl)-4-{[4-(4-methyl-piperazin-1-yl)-phenylamino]-methylene}-4H-isoquinoline-1,3-dione]",4.9 µM,6.9 µM,6.4 µM,15.5 µM,9.2 µM
"COc1ccc(-c2ccc3c(c2)C(=CNc2ccc(N4CCN(C)CC4)cc2)C(=O)NC3=O)cc1 [Example 682, 6-(4-Methoxy-phenyl)-4-{[4-(4-methyl-piperazin-1-yl)-phenylamino]-methylene}-4H-isoquinoline-1,3-dione]",3.4 µM,5.2 µM,1.5 µM,2.5 µM,4.4 µM
"CN1CCN(c2ccc(NC=C3C(=O)NC(=O)c4ccc(-c5ccc(Cl)cc5)cc43)cc2)CC1 [Example 689, 6-(4-Chloro-phenyl)-4-{[4-(4-methyl-piperazin-1-yl)-phenylamino]-methylene}-4H-isoquinoline-1,3-dione]",4.7 µM,6.7 µM,3 µM,3.4 µM,3.8 µM
"CN1CCN(c2ccc(NC=C3C(=O)NC(=O)c4ccc(-c5ccccc5Cl)cc43)cc2)CC1 [Example 691, 6-(2-Chloro-phenyl)-4-{[4-(4-methyl-piperazin-1-yl)-phenylamino]-methylene}-4H-isoquinoline-1,3-dione]",8.3 µM,2.2 µM,1.3 µM,3 µM,2.8 µM
"CN1CCN(c2ccc(NC=C3C(=O)NC(=O)c4ccc(-c5cccc(C=CC(=O)O)c5)cc43)cc2)CC1 [Example 699, 3-[3-(4-{[4-(4-Methyl-piperazin-1-yl)-phenylamino]-methylene}-1,3-dioxo-1,2,3,4-tetrahydro-isoquinolin-6-yl)-phenyl]-acrylic acid]",2.9 µM,> 50 µM,22.9 µM,> 50 µM,> 50 µM
"COc1ccc(-c2ccc3c(c2)C(=CNc2ccc(CC#N)cc2)C(=O)NC3=O)cc1 [Example 701, (4-{[6-(4-Methoxy-phenyl)-1,3-dioxo-2,3-dihydro-1H-isoquinolin-4-ylidenemethyl]-amino}-phenyl)-acetonitrile]",6.6 µM,> 50 µM,> 50 µM,39.6 µM,34.4 µM
"N#CCc1ccc(NC=C2C(=O)NC(=O)c3ccc(-c4ccc(F)cc4)cc32)cc1 [Example 704, (4-{[6-(4-Fluoro-phenyl)-1,3-dioxo-2,3-dihydro-1H-isoquinolin-4-ylidenemethyl]-amino}-phenyl)-acetonitrile]",7 µM,> 50 µM,> 50 µM,26.4 µM,28.6 µM
"N#CCc1ccc(NC=C2C(=O)NC(=O)c3ccc(-c4ccccc4F)cc32)cc1 [Example 706, (4-{[6-(2-Fluoro-phenyl)-1,3-dioxo-2,3-dihydro-1H-isoquinolin-4-ylidenemethyl]-amino}-phenyl)-acetonitrile]",7.3 µM,> 50 µM,> 50 µM,> 50 µM,40.4 µM
"CC(=O)c1ccccc1-c1ccc2c(c1)C(=CNc1ccc(CC#N)cc1)C(=O)NC2=O [Example 711, (4-{[6-(2-Acetyl-phenyl)-1,3-dioxo-2,3-dihydro-1H-isoquinolin-4-ylidenemethyl]-amino}-phenyl)-acetonitrile]",9.8 µM,> 50 µM,> 50 µM,46.7 µM,> 50 µM
"N#CCc1ccc(NC=C2C(=O)NC(=O)c3ccc(-c4ccccc4Cl)cc32)cc1 [Example 714, (4-{[6-(2-Chloro-phenyl)-1,3-dioxo-2,3-dihydro-1H-isoquinolin-4-ylidenemethyl]-amino}-phenyl)-acetonitrile]",5.5 µM,> 50 µM,> 50 µM,> 50 µM,31.2 µM
"Cc1ccc(-c2ccc3c(c2)C(=CNc2ccc(CC#N)cc2)C(=O)NC3=O)cc1 [Example 715, {4-[(1,3-Dioxo-6-p-tolyl-2,3-dihydro-1H-isoquinolin-4-ylidenemethyl)-amino]-phenyl}-acetonitrile]",9.3 µM,26 µM,19.6 µM,33.4 µM,24.8 µM
"Cc1cccc(-c2ccc3c(c2)C(=CNc2ccc(CC#N)cc2)C(=O)NC3=O)c1 [Example 716, {4-[(1,3-Dioxo-6-m-tolyl-2,3-dihydro-1H-isoquinolin-4-ylidenemethyl)-amino]-phenyl}-acetonitrile]",9.3 µM,> 50 µM,> 50 µM,> 50 µM,27.2 µM
"CN1CCN(c2ccc(NC=C3C(=O)NC(=O)c4ccc(C=CCO)cc43)cc2)CC1 [Example 724, 6-(3-Hydroxy-propenyl)-4-{[4-(4-methyl-piperazin-1-yl)-phenylamino]-methylene}-4H-isoquinoline-1,3-dione]",3.6 µM,10.4 µM,5.8 µM,16.9 µM,14.8 µM
"CN1CCN(c2ccc(NC=C3C(=O)NC(=O)c4ccc(C=Cc5ccc(N)cc5)cc43)cc2)CC1 [Example 725, 6-[2-(4-Amino-phenyl)-vinyl]-4-{[4-(4-methyl-piperazin-1-yl)-phenylamino]-methylene}-4H-isoquinoline-1,3-dione]",2.9 µM,29.9 µM,8 µM,19.5 µM,29.3 µM
